Experimental data reported in patent US20240271088A1, “METHOD FOR MAINTAINING AND AMPLIFYING HUMAN PRIMORDIAL GERM CELLS / HUMAN PRIMORDIAL GERM CELL-LIKE CELLS” (KYOTO UNIVERSITY, priority 2020, published 2024).

Legend:
[1] = system: 585B1-868BTAG iPSC-derived PGCLCs; assay: hPGCLC maintenance and expansion culture with added Wnt signal transduction inhibitors; growth curve and enrichment score by FACS; format: cell-based, human; settings: control DMSO
From the text: FIG. 14A A drawing showing the suppressive effect of Wnt signal transduction inhibitor on PGCLC dedifferentiation. […] Growth curve of BTAG double-positive cells under each condition in 30 day culture (n=3). The average values of the three experiments were plotted and connected with a straight line. The number after the lowercase letter “c” indicates the number of days of culture.
FIG. 14B A drawing showing the suppressive effect of Wnt signal transduction inhibitor on PGCLC dedifferentiation. […] Enrichment score (n=3) under each condition at C10, C20 and C30. The average values were plotted with red diamonds. Using the DMSO-added group as a control group, a multiple comparison test was performed by Dunnet method. *:p<0.1, **:p<0.05 […]
Further detailed analysis of the FACS analysis results of 585B1-868BTAG (BLIMP1-tdTomato and AP2γ-EGFP) iPS cell-derived proliferated human PGCLC was performed. In the FACS analysis, the expression of the human cell-specific cell surface antigen TRA-1-85 in the population excluding dead cells by DRAQ7 staining was analyzed. […]
Proliferation culture was performed using 585B1-868BTAG iPSC-derived PGCLCs on day 6 of differentiation induction. […] Cells were passaged and counted by FACS every 10 days to draw a proliferation curve. In addition, an enrichment score was calculated at respective culture day numbers.

[2] = system: BT+AG+ hPGCLC (d6 hPGCLCs from 585B1 BTAG hiPSC); assay: hPGCLC expansion culture on m220 feeders with combinations of chemical substances and cytokines; BT+AG+ cells counted by FACS; format: cell-based, human; settings: 10 days of culture, GMEM, 15% KSR, 2.5% FBS, 100 ng/ml SCF, forskolin 10 μM, rolipram 10 μM, cyclosporin A 5 μM, LIF 10 ng/ml, EGF 50 ng/ml, bFGF 20 ng/ml
Protocol: FIG. 1B Exploration of conditions for expanding hPGCLC in vitro. (B) (Left) Scheme for exploration of conditions for BT^+AG^+ cell proliferation. (Right) Plot showing the number of BT^+AG^+ cells after 10 days of culture under the indicated conditions determined by FACS analysis. (Blue) Combination of chemical substances [forskolin (10 μM), rolipram (10 μM), and cyclosporin A (5 μM)] used for BT^+AG^+ cell proliferation. (Yellow) Combination of cytokines [LIF (10 ng/ml), EGF (50 ng/ml), and basic fibroblast growth factor (bFGF: 20 ng/ml)] used for BT^+AG^+ cell proliferation. About 5000 hPGCLCs were used as the starting cell population. […] Conditions for mPGCLC expansion: green. Conditions without additional chemical substance/cytokine: gray.
In order to examine the influence of cytokine and/or chemical substances on hPGCLC proliferation, hPGCLC was treated with MMC in GK15 containing 2.5% FBS and 100 ng/mL SCF, and supplemented with cytokine and/or chemical substances [10 ng/mL LIF; 50 ng/mL EGF; 20 ng/mL bFGF; 10 μM forskolin; 10 μM rolipram; 5 μM cyclosporin A (SIGMA, 30024)], and the cells were passaged every 10 days [see the section of Fluorescence activated cell sorting]. On the day of passage, about 5.0×10^3 cells were plated on 24-well plates (0.5 mL of medium containing 10 μM Y27632), and 0.5 mL of medium free of Y27632 was 0.5 mL added the next day. […]

Compound	appearance of dedifferentiated cells (enrichment score) ([1]; c10, c20, c30, IWR1 at various concentrations, inhibitor comparison at 2.5 μM)	effect on hPGCLC proliferation (growth curve of BTAG double-positive cells) ([1]; various concentrations added to maintenance and expansion medium, 30 days of culture, n=3)	effect on expansion of the number of BT+AG+ cells [2]
O=C(Nc1cccc2cccnc12)c1ccc(N2C(=O)[C@@H]3[C@H](C2=O)[C@@H]2C=C[C@H]3C2)cc1 [IWR1]	significantly suppressed	no effect	–
FGF: basic fibroblast growth factor, 20 ng/ml	–	–	positive effect
